In patent US20120009280A1, “METHOD OF REDUCING THE RATE OF DEGRADATION OF A BIOLOGICAL MATERIAL” (Bio-Energy Ingredients Limited, priority 2009, published 2012):
Where “and” joins values, the source holds several entries; their conditions need not be identical. Identical values can stand only once.

Key:
Type in all cases: cell-based
[1] = system: Clostridium difficile ATCC 43255; assay: Antimicrobial efficacy test of saturated aqueous solutions; settings: for Corrected count cfu/mL: saturated aqueous solution, inoculum (t = 0) 8.20 × 10^7, replicates A, B; for reduction: saturated solution 8.35 g/L (0.037 M)
Description: (§1) Escherichia coli NCIMB 8545 and Salmonella abony NCTC 6017 were subcultured onto Tryptone Soya Agar (TSA) and the plates incubated at 30-35° C. for approximately 24 hours. Clostridium difficile ATCC 43255 was subcultured onto Fastidious Anaerobe Agar (FAA)+5% defibrinated horse blood and the plates incubated at 30-35° C. for approximately 48 hours. After this time, surface growth was harvested and directly suspended into sterile distilled water and standardised to give 30-45% light transmission at 520 nm on a Jenway 6105 Spectrophotometer—an approximate yield of 2×10^8 cfu/ml. […] […]. At the same time, 1 ml of bacterial suspension was removed from the original stock suspensions and placed into 9 ml PBS to perform the initial (Time 0) count. The inoculated suspensions were then shaken for ten minutes at room temperature. After 1 and 10 minutes, 1 ml samples of the bacterial suspensions were removed from the test containers and placed into 9 ml PBS. For each diluted sample, further serial ten-fold dilutions in PBS down to 10^−5 were made and then used to prepare duplicate 1 ml pour plate counts in TSA. Pour plates were also prepared from the neat (undiluted) sample. For Clostridium difficile, 0.1 ml spread plates were prepared on FAA instead of 1 ml pour plates due to the presence of blood in the agar. The plates were incubated at 30-35° C. for approximately 24 hours (48 hours for Clostridium difficile).
(§2) Following incubation, the plates were counted. Optimally, plates with counts of 30-300 colonies were used to calculate the counts at each sampling time.

[2] = system: Salmonella abony NCTC 6017; assay: as above
Description: At the same time, 1 ml of bacterial suspension was removed from the original stock suspensions and placed into 9 ml PBS to perform the initial (Time 0) count. The inoculated suspensions were then shaken for ten minutes at room temperature. After 1 and 10 minutes, 1 ml samples of the bacterial suspensions were removed from the test containers and placed into 9 ml PBS. For each diluted sample, further serial ten-fold dilutions in PBS down to 10^−5 were made and then used to prepare duplicate 1 ml pour plate counts in TSA. Pour plates were also prepared from the neat (undiluted) sample. For Clostridium difficile, 0.1 ml spread plates were prepared on FAA instead of 1 ml pour plates due to the presence of blood in the agar. The plates were incubated at 30-35° C. for approximately 24 hours (48 hours for Clostridium difficile).
as §2

Escherichia coli = assay: Spiking test of agar plates with Escherichia coli (kill versus inhibition); settings: for Individual count / Mean count: spiking test
Description: (§3) When performing total viable counts (TVCs), the agar plates (when they were molten and containing 1 ml of the test sample dilution) were spiked with bacterial organisms (E. Coli and P. aeruginosa) of a known concentration. If the organisms grew, this would indicate that the conditions in the agar plate had not inhibited them. A control with no sample was run at the same time. […]
(§4) The plates were incubated at 30-35° C. for approximately 24 hours after which time the bacterial colonies were counted.
. […] This was performed in duplicate.

[3] = system: Escherichia coli NCIMB 8545; assay: Antimicrobial efficacy test of saturated aqueous solutions; settings: for Corrected count cfu/mL: saturated aqueous solution, inoculum (t = 0) 6.95 × 10^8, replicates A, B; for colonies on plates: saturated solution
Description: Escherichia coli NCIMB 8545 was subcultured onto TSA and the plates incubated at 30-35° C. for approximately 24 hours. After this time, surface growth was harvested and directly suspended into sterile distilled water and standardised to give 30-45% light transmission at 520 nm on a Jenway 6105 Spectrophotometer—an approximate yield of 2 (10^8) cfu/ml. A 0.1 ml aliquot of this suspension was inoculated into 9.9 ml of CaOH solution. This was performed in duplicate. At the same time, 1 ml of bacterial suspension was removed from the original stock suspension and placed into 9 ml PBS to perform the initial (Time 0) count. The inoculated calcium hydroxide suspensions were then shaken for one hour at room temperature. After this time 1 ml samples of the bacterial suspension were removed from the test containers and placed into 9 ml PBS. For each diluted sample, further serial ten-fold dilutions in PBS down to 10^−5 were made and then used to prepare duplicate 1 ml pour plate counts in TSA. Pour plates were also prepared from the neat (undiluted) sample. The plates were incubated at 30-35° C. for approximately 24 hours. Following incubation, the plates were counted. Optimally, plates with counts of 30-300 colonies were used to calculate the counts at each sampling time.
Escherichia coli NCIMB 8545 was subcultured onto TSA and the plates incubated at 30-35° C. for approximately 24 hours. After this time, surface growth was harvested and directly suspended into sterile distilled water and standardised to give 30-45% light transmission at 520 nm on a Jenway 6105 Spectrophotometer—an approximate yield of 2×10^8 cfu/ml. […] […]. At the same time, 1 ml of bacterial suspension was removed from the original stock suspension and placed into 9 ml PBS to perform the initial (Time 0) count. The inoculated suspensions were then shaken for one hour at room temperature. After both 10 minutes and one hour, 1 ml samples of the bacterial suspension were removed from the test containers and placed into 9 ml PBS. For each diluted sample, further serial ten-fold dilutions in PBS down to 10^−6 were made and then used to prepare duplicate 1 ml pour plate counts in TSA. Pour plates were also prepared from the neat (undiluted) sample. The plates were incubated at 30-35° C. for approximately 24 hours.
as §2, §1

total micro-organism = assay: Total microbial (plate) count of spent brewer's / wet distiller's grains stored at ambient temperature; settings: dose 10% w/w; distiller's grains not de-watered, Examples 16-18
Pseudomonas aeruginosa = assay: Spiking test of agar plates with Pseudomonas aeruginosa (kill versus inhibition); settings: treated sample with 5% (w/w) calcium oxide, Day 9, all sample dilutions
Description: as §3, §4

[4] = E. coli NCIMB 8545, dilution −1 in PBS
[5] = E. coli NCIMB 8545, dilution −2 in PBS
[6] = E. coli NCIMB 8545, dilution −3 in PBS
[7] = E. coli NCIMB 8545, dilution −4 in PBS
[8] = E. coli NCIMB 8545, dilution −5 in PBS
[9] = E. coli NCIMB 8545, saturated solution Neat (control mean 215)
[10] = 10 minutes incubation, Example 13
[11] = 10 minutes incubation, time 0 count 4.00×10^6 cfu/ml, Example 12
[12] = one hour incubation, time 0 count 4.00×10^6 cfu/ml, Example 12

`[Ca+2].[OH-].[OH-]` [calcium hydroxide] was tested, and the “Corrected count cfu/mL” value ([1]; one minute treatment) was 8.50 × 10^2 cfu/mL and 9.50 × 10^2 cfu/mL, the “Corrected count cfu/mL” value ([1]; ten minute treatment) was 1.10 × 10^2 cfu/mL and 1.20 × 10^2 cfu/mL and the “Corrected count cfu/mL” value ([2]; saturated aqueous solution, one minute treatment, inoculum (t = 0) 7.00 × 10^8, replicates A, B) was 59 cfu/mL and 11 cfu/mL. For the same compound, the colonies on plates ([2]; saturated solution, 10 minutes incubation) was “No colonies”, the Individual count (Escherichia coli; [4]) was 197 and 209 and the Mean count (Escherichia coli; [4]) was 203. The Individual count (Escherichia coli; [5]) was 194 and 203, the Mean count (Escherichia coli; [5]) was 199 and the Individual count (Escherichia coli; [6]) was 192 and 240. For the same compound, the Mean count (Escherichia coli; [6]) was 216, the Individual count (Escherichia coli; [7]) was 194 and 196 and the Mean count (Escherichia coli; [7]) was 195. For the same compound, the Individual count (Escherichia coli; [8]) was 235 and 194, the Mean count (Escherichia coli; [8]) was 215 and the Individual count (Escherichia coli; [9]) was 216 and 191. The Mean count (Escherichia coli; [9]) was 205, the “Corrected count cfu/mL” value ([3]; one minute treatment) was 1.35 × 10^6 cfu/mL and 1.23 × 10^5 cfu/mL and the colonies on plates [3, 10] was “No colonies”. The colonies on plates [3, 11] was “No colonies” and the colonies on plates [3, 12] was “No colonies”.
`[O]=[Ca]` [calcium oxide] was tested, and the “preservation time with total microbial counts <100 cfu/g” value (total micro-organism) was “≧9 weeks”, the “preservation time with total microbial counts <1000 cfu/g” value (total micro-organism) was “≧9 weeks” and the “inhibitory effect on test organism in spiking test” value (Pseudomonas aeruginosa) was “did not demonstrate an inhibitory effect”. For the same compound, the “inhibitory effect on test organism in spiking test” value (Escherichia coli; treated sample with 5% (w/w) calcium oxide, Day 9, all sample dilutions) was “did not demonstrate an inhibitory effect”.
With `[Ca+2].[O-]CC(O)CO.[O-]CC(O)CO` [calcium diglyceroxide] the “Corrected count cfu/mL” value ([1]; one minute treatment) was 1.30 × 10^3 cfu/mL and 7.00 × 10^2 cfu/mL, the “Corrected count cfu/mL” value ([1]; ten minute treatment) was 85 cfu/mL and 50 cfu/mL and the reduction ([1]; one minute treatment) was ≥ 4 log10. For the same compound, the reduction ([1]; ten minute treatment) was 6 log10, the “Corrected count cfu/mL” value ([3]; one minute treatment) was 0 cfu/mL and 1 cfu/mL and the reduction ([3]; saturated solution 8.35 g/L (0.037 M), one minute treatment) was ≥ 4 log10. The colonies on plates [3, 10] was “No colonies”, the colonies on plates [3, 11] was “No colonies” and the colonies on plates [3, 12] was “No colonies”.
